Measured values: publication PMC6201930 (PLoS ONE, 2018)
Where “and” joins values, the source holds several entries; their conditions need not be identical. Identical values can stand only once. Like-named read-outs stand apart in the source and are kept apart here.

What was measured:
[1] = tested on: p53 R213* UGA premature termination codon in HDQ-P1 mammary carcinoma cells; assay: HDQ-p53UGA213 readthrough assay (full-length p53, MSD immunoassay); type: cell-based, human; conditions: for HDQ-p53UGA213 (Maxfold): maximum readthrough activity above background
Protocol: We utilized HDQ-P1 mammary carcinoma cells, which are homozygous for R213*, a UGA premature termination codon in the gene for the tumor suppressor protein p53 [30]. […] Western blot hybridization and Meso Scale Discovery (MSD) immunoassay detection of p53 were done as previously described. […] Cells (45K per well) were grown in 96-well plates and treated with compounds for 24 hours. […] Cells were lysed with 60 μl per well of lysis buffer (20 mM Tris-HCL, pH 7.5, 1 mM EGTA, 1 mM EDTA,150 mM Nacl, 0.5% Triton X100) for one hour at room temperature and 30 μl of lysate per well were transferred to the coated plate and incubated overnight at 4 °C. […] Plates were then washed three times with PBS-T and 30 μl of 0.25 μ/ml goat anti-rabbit IgG-Sulfo-tag antibody (MSD) in TBS-C was added and incubated for 1 hour at room temperature. Plates were then washed three times with PBS-T and 150 μl read buffer (MSD) was added. Plates were read immediately in a SECTOR S 600 (MSD).

[2] = tested on: tGFP-CFTR542X-HA-HIS construct (codon 542 UGA) in 293H cells; assay: tGFP-542X readthrough assay (HA-HIS MSD immunoassay); type: cell-based, human
[3] = tested on: fLuc mRNA harboring a UGA nonsense mutation at codon 190 (fLuc-190-NS); type: biochemical, rabbit
Description: ThefLuc-190-NS assay is an in vitro rabbit reticulocyte lysate translation of an fLuc mRNA harboring a UGA nonsense mutation at codon 190 (fLuc-190-NS). It is believed that positively charged aminoglycosides are poorly taken up by cells, and we used this cell-free readthrough assay to eliminate the potential variable of cell uptake when measuring readthrough potency. […] Readthrough protein was detected using a HA-HIS MSD immunoassay described previously.
This cell-free translation assay used synthetic LUC mRNAs harboring an EMCV IRES and LUC codon 190-UGA premature stop codon prepared using the MegaScript in vitro transcription kit (Ambion). Translation reactions were done with the Rabbit Reticulocyte Lysate System (Promega) with 100 ng RNA and increasing concentrations of aminoglycosides. The amount of luminescence produced was determined after approximately 4 hours using a Viewlux CCD imager (Perkin-Elmer). Fold suppression over background was calculated as (aminoglycoside light units/PBS light units).

[4] = Cytotoxicity in stimulated PBMCs (CellTitre-Glo ATP); conditions: human
Description: (§1) When considering compounds for potential readthrough therapy it is important to monitor cellular and animal safety. In order to determine the most promising compounds to further evaluate in in vivo safety, we measured cytotoxicity in two different cell types. We used activated human peripheral blood mononuclear cells (PBMCs) (Table 2 and Fig 2D and 2E). PBMCs are a primary cell that when activated with phytohaemagglutinin (PHA) expand quickly and are commonly used as an in vitro surrogate for rapidly growing cells in the human body to evaluate cytotoxicity. Prior to advancing compounds into human studies, safety evaluation in rodents is performed. As an in vitro surrogate for rodent toxicity, we used primary mouse myoblasts.
(§2) Frozen human Peripheral Blood Mononuclear Cells (PBMCs) were obtained from […] (Alameda, CA, Cat# PB003F) from a single donor. […] Plates were incubated at 37°C with 5% CO2 for 4 hours prior to compound treatment. Compounds were serially diluted and added to the plates. Plates were incubated at 37°C, 5% CO2 incubator, for 72 hours prior to determinations of ATP levels. Cell viability was determined using a chemiluminescent assay to monitor adenosine triphosphate (ATP) levels in live cells (CellTitre-Glo; CTG; Promega, Cat#G7571). Methods were performed per the manufacturer’s instructions.

[5] = tested on: activated human peripheral blood mononuclear cells (PBMCs); assay: as above; conditions: read-out: Stimulated PBMC CC50, individual determinations (S1 File)
Description: as §1, §2

[6] = Cytotoxicity in myoblasts; conditions: mouse, primary mouse myoblasts
Description: as §1

[7] = Neuromast toxicity assay (DASPEI staining); conditions: zebrafish, zebrafish embryos 5 dpf, neuromasts (hair cells), other: embryos exposed to the drug in 24-well plates
[8] = concentration required to double the level of full-length p53 protein, average ± SD, at least three experiments, highest concentration 300 μM
[9] = individual experiments (S1 File)
[10] = individual experiments (S1 File), max fold
[11] = 293H cells, 24 hours, average ± SD
[12] = individual experiments (S1 File), unit not printed for EC5X (EC2X of the sheet in uM)
[13] = maximum readthrough above background, average ± SD
[14] = AVERAGE (S1 File), unit not given for EC5X
[15] = Stimulated PBMC CC50, AVERAGE (S1 File)
[16] = Myoblast CC50, AVERAGE (S1 File)
[17] = Myoblast CC50, individual determinations (S1 File)
[18] = Neuromast CC50, AVERAGE (S1 File)
[19] = Neuromast CC50, individual determinations (S1 File)
[20] = individual experiments (S1 File), listed as PTC-0302307 (C1)
[21] = individual experiments (S1 File), unit not printed for EC5X (EC2X of the sheet in uM), listed as PTC-0302307 (C1)

| Compound | HDQ-p53UGA213 EC2X ([1]; AVERAGE (S1 File)) [µM] | HDQ-p53UGA213 max ([1]; AVERAGE (S1 File)) | HDQ-p53UGA213 EC2X [1, 8] [µM] | HDQ-p53UGA213 (Maxfold) ([1]; average ± SD) [fold] | tGFP-542X EC2X [2, 11] [µM] | tGFP-542X EC2X ([2]; AVERAGE (S1 File)) [µM] | tGFP-542X Maxfold ([2]; AVERAGE (S1 File)) | tGFP-542X EC2X [2, 9] | tGFP-542X Maxfold [2, 9] | tGFP-542X EC5X [2, 12] | tGFP-542X Maxfold [2, 13] [fold] | fLuc-190-NS EC2X ([3]; AVERAGE (S1 File)) [µM] | fLuc-190-NS MaxFold ([3]; AVERAGE (S1 File)) | fLuc-190-NS EC5X [3, 14] | fLuc-190-NS EC2X ([3]; cell-free, average ± SD) [µM] | fLuc-190-NS MaxFold ([3]; cell-free, average ± SD) [fold] | fLuc-190-NS EC2X [3, 9] | fLuc-190-NS MaxFold [3, 9] | fLuc-190-NS EC5X [3, 12] | CC50 at 24 h [7, 18] [µM] | other results |
| --- | --- | --- | --- | --- | --- | --- | --- | --- | --- | --- | --- | --- | --- | --- | --- | --- | --- | --- | --- | --- | --- |
| CN[C@@H]1[C@@H](O)[C@@H](O[C@@H]2[C@@H](O)[C@H](O[C@H]3O[C@H](CO)[C@@H](O)[C@H](O)[C@H]3N)[C@@H](N)C[C@H]2N)OC[C@H]1O [Gentamicin A, gentamicin A] | 585.5 | 2.7 | 586 ± 100 | 3 ± 0.4 | 385 ± 123 | 385.2 | 3.8 | 490.42 µM and 415.81 µM and 249.27 µM | 3.32 and 4.14 and 3.99 | >1000 | 4 ± 0.4 | 0.45 | 6.7 | 2.0 | 0.45 ± 0.015 | 6.7 ± 0.4 | 0.44 µM and 0.47 µM and 0.45 µM | 6.38 and 6.62 and 7.20 | 1.95 and 2.14 | 17 | HDQ-p53UGA213 EC2X [1, 9]: 658.30 µM and 626.86 µM and 471.32 µM; HDQ-p53UGA213 max [1, 10]: 2.50 and 3.24 and 2.45; CC50 at 72 h [4, 15]: 3620 µM; CC50 [5]: > 1250 µM and 3620 µM; CC50 [6, 16]: 6210 µM; CC50 [6, 17]: 6210 µM; CC50 at 24 h [7, 19]: 17 µM |
| CN[C@@H]1[C@@H](O)[C@@H](O[C@@H]2[C@@H](O)[C@H](O[C@H]3O[C@H]([C@@H](C)NC)CC[C@H]3N)[C@@H](N)C[C@H]2N)OC[C@]1(C)O [Gentamicin C1, gentamicin C1] | 311.4 | 4.8 | 311 ± 321 | 5 ± 3 | 439 ± 192 | 439.1 | 3.4 | – | – | – | 3 ± 2 | 1.1 | 18.9 | 2.6 | 1.061 ± 0.262 | 19 ± 2 | – | – | – | 9.4 | HDQ-p53UGA213 EC2X ([1]; concentration required to double the level of full-length p53 protein, average ± SD, at least three experiments, highest concentration 300 μM, listed as C1): triple digit; HDQ-p53UGA213 EC2X [1, 20]: 74.03 µM and 776.89 µM and 269.47 µM and 125.28 µM; HDQ-p53UGA213 max ([1]; individual experiments (S1 File), max fold, listed as PTC-0302307 (C1)): 6.40 and 2.10 and 2.50 and 8.00; tGFP-542X EC5X [2, 14]: 825.7; tGFP-542X EC2X [2, 20]: 303 µM and 575 µM and >1000 µM; tGFP-542X Maxfold [2, 20]: 6 and 2 and 1.70; tGFP-542X EC5X [2, 21]: 826 and >1000; fLuc-190-NS EC2X [3, 20]: 1.36 µM and 0.90 µM and 0.92 µM; fLuc-190-NS MaxFold [3, 20]: 18.25 and 17.61 and 20.78; fLuc-190-NS EC5X [3, 21]: 2.89 and 2.68 and 2.37; CC50 at 72 h ([4]; Stimulated PBMC CC50, individual determinations (S1 File)): > 1250 µM; CC50 ([5]; listed as PTC-0302307 (C1)): > 1000 µM; CC50 at 24 h [7, 19]: 9.4 µM |
| CN[C@@H]1[C@@H](O)[C@@H](O[C@@H]2[C@@H](O)[C@H](O[C@H]3O[C@H]([C@H](C)N)CC[C@H]3N)[C@@H](N)C[C@H]2N)OC[C@]1(C)O [Gentamicin C2a, gentamicin C2a] | 251.7 | 4.2 | 252 ± 49 | 4 ± 1 | 583 ± 110 | 582.8 | 2.8 | 691 µM and 586 µM and 471.89 µM | 2.62 and 2.35 and 3.32 | >1000 | 3 ± 0.5 | 1.1 | 32.1 | 2.8 | 1.077 ± 0.029 | 32 ± 5 | 1.08 µM and 1.10 µM and 1.05 µM | 26.96 and 33.13 and 36.29 | 2.91 and 2.75 and 2.60 | 2.7 | HDQ-p53UGA213 EC2X ([1]; concentration required to double the level of full-length p53 protein, average ± SD, at least three experiments, highest concentration 300 μM, listed as C2a): triple digit; HDQ-p53UGA213 EC2X [1, 9]: 217.36 µM and 286.09 µM; HDQ-p53UGA213 max [1, 10]: 3.40 and 5.00; CC50 at 72 h [4, 15]: 6710 µM; CC50 [5]: > 1250 µM; CC50 [6, 16]: 5680 µM; CC50 [6, 17]: 4640 µM; CC50 at 24 h [7, 19]: 2.7 µM |
| CN[C@@H]1[C@@H](O)[C@@H](O[C@@H]2[C@@H](O)[C@H](O[C@H]3OC(CN)=CC[C@H]3N)[C@@H](N)C[C@H]2N)OC[C@]1(C)O [Sisomycin] | – | – | – | – | >1000 | – | 1.3 | >1000 µM | 1.27 and 1.38 and 1.37 | >1000 | 1 ± 0.1 | 2.6 | 4.0 | – | 2.596 ± 0.428 | 4 ± 0.5 | 2.96 µM and 2.70 µM and 2.13 µM | 3.55 and 3.95 and 4.47 | >30 | – | – |
